In assay [1] the test system is RanBP1 (Crm1 export pathway). Format: cell-based.
Assay [2] has as its system vRNP nuclear export (viral NP protein), WSN/H1N1. It counts as cell-based, influenza A virus.
The test system of another assay is WSN/H1N1. Format: cell-based, influenza A virus. The note with it: read-out: EC50 (progeny virus titers).
Assay [3] has as its system ERK1/2. Format: cell-based.
Assay [4] deals with WSN/H1N1, PR8M/H1N1, pdm09Hamburg/H1N1, Panama/H3N2, KAN-1/H5N1, Anhui/H7N9, SC35M/H7N7, B/Lee. It counts as cell-based, influenza A and B viruses. The following applies: 15 μM, 24 h p.i., MOI 0.01, A549 or MDCKII cells, DMSO control = 100%.
Assay [5] relates to vRNPs of WSN/H1N1, PR8M/H1N1, pdm09Hamburg/H1N1, Panama/H3N2, KAN-1/H5N1, Anhui/H7N9, SC35M/H7N7, B/Lee. Format: cell-based, influenza A and B viruses. The note with it: 15 μM, treated 3 h p.i., fixed 9 h or 12 h p.i., MOI 5.
Assay [6] deals with RSK1. The note with it: in vitro; cited from earlier work.
In a further assay the test system is vRNP-M1 interaction. Format: cell-based, influenza A virus.
A further assay relates to GSK-3β. It counts as cell-based.
In assay [7] the test system is RSK1. Format: cell-based.
For assay [8], the system named is viral NP protein (Serine residues 269 and 392). Format: cell-based, influenza A virus.
In the next assay the test system is RSK substrate p140. The following applies: not that of RSK or RSK upstream kinases even at 100 μM; cited from earlier work.
The subject of the next assay is MCF-7. The following applies: cited from earlier work.
The target of assay [9] is p90 ribosomal S6 kinase (N-terminal kinase domain). The note with it: cited from earlier work.
In assay [10] the test system is ERK1/2. Put plainly: TPA stimulation: nuclear localization of ERK1/2 in A549 cells. It counts as cell-based. The following applies: A549, TPA-stimulated, 1 h; unstimulated 27.99%±1.97%. As for the experimental part: (§1) (A,C) A549 cells were stimulated with TPA (200 nM). The solvent DMSO served as negative control. After 1 h the cells were fixed and cellular localization of RSK2 or ERK1/2 (Alexa-561) was analyzed by epifluorescence microscopy. Nuclei were stained with Dapi. Dashed squares indicate zoom-in areas. Shown are representative epifluorescence microscopy pictures of single focal planes. Results of one out of three independent experiments are shown. Scale bar represents 50 μm.(B,D) Quantification of the cellular localization of RSK2 or ERK1/2 from (A,C). 15 epifluorescence microscopy pictures of each sample were analyzed in terms of the RSK2 localization using the ImageJ “Intensity Ratio Nuclei Cytoplasm Tool”. Results are depicted as means±SD of three independent experiments. Statistical significance was analyzed by unpaired t-test with Welch's correction (**p≤0.01).
(§2) To exclude unspecific staining of RSK2 and ERK1/2 the Raf/MEK/ERK-pathway was stimulated with TPA. It is known that the incubation with TPA leads to the activation of the Raf/MEK/ERK-pathway resulting in the nuclear localization of ERK1/2 and RSKs within minutes after the stimulation. […] After 1 h the cells were fixed and cellular localization of RSK2 or ERK1/2 (Alexa-561) was analyzed by epifluorescence microscopy. […] Statistical significance was analyzed by unpaired t-test with Welch's correction (**p≤0.01). […]

In the next assay the test system is RSK2. Put plainly: TPA stimulation: nuclear localization of RSK2 in A549 cells. It counts as cell-based. The following applies: A549, TPA-stimulated, 1 h; unstimulated 29.37%±1.15%. As to the method:
as §1, §2

For `O=C(O)c1ccc(F)c(F)c1Nc1ccc(I)cc1Cl` [ATR-002], in assay [1], the “nuclear retention of RanBP1” value is given as “not detected”. Further, the “nuclear retention of the viral NP protein (vRNPs)” value (from here on “nuclear retention … (vRNPs)”) in assay [2] was “nuclear retention”.

As a reminder, the EC50 is the concentration that produces a half-maximal response. A word on the IC50: it is the point on the concentration scale where inhibition reaches its midpoint. Regarding `CC(C)CCN1c2nc(Nc3cc(F)c(O)c(F)c3)ncc2N(C)C(=O)C1C` (centres unmarked) [BI-D1870], in the assay on WSN/H1N1, the EC50 was found to be 2.81 µM. For the same compound, in the assay on ERK1/2 [3], the ERK1/2 phosphorylation state entry was “induction of the ERK1/2 phosphorylation state”. For the same compound, the “reduction of progeny viral titers, all tested viruses” value in [4] lay within 80 to 90%. The “nuclear retention of newly synthesized vRNPs, all tested viruses” value in [5] is recorded as “nuclear retention of newly synthesized vRNPs”. The IC50 in the assay on RSK1 [6] was […]. In addition, in assay [2], the “nuclear retention … (vRNPs)” value was “negatively affected the vRNP nuclear export”. In addition, the “amount of M1 co-purified with Strep-PB2-vRNPs” value in the assay on vRNP-M1 interaction is “decreased amount of M1”. Besides, the GSK-3ß phosphorylation result in the assay on GSK-3β is “concentration dependent reduction”.

Turning to `O=C(NOCC1CC1)c1ccc(F)c(F)c1Nc1ccc(I)cc1Cl` [CI-1040], the “virus induced RSK activation” value in the assay on RSK1 [7] is “blocked”. For the same compound, the “phosphorylation state of NP Serine residues 269 and 392” value in assay [8] is recorded as “decreased phosphorylation state”.

Regarding `CCC(=C/[C@H](C)C/C=C/C(C)=C/[C@@H](C)C(=O)[C@@H](C)[C@H](O)[C@@H](C)C/C(C)=C/C(=O)O)/C=C/[C@@H]1OC(=O)C=C[C@@H]1C` [Leptomycin B], in assay [1], the “nuclear retention of RanBP1” value is “nuclear retention of RanBP1 was only detected for the Leptomycin B treated samples”. Also, the “nuclear retention … (vRNPs)” value in [2] is “highest retention rates”.

Broadly, the Ki is the equilibrium dissociation constant of an inhibitor or competing ligand from its target. As for `CC(=O)O[C@@H]1[C@@H](OC(C)=O)[C@@H](O)[C@H](Oc2c(-c3ccc(O)cc3)oc3cc(O)cc(O)c3c2=O)O[C@H]1C` [SL0101-1], the EC50 in the assay with WSN/H1N1 came to 10.5 µM. The “block of PDB-induced cellular phosphorylation of p140” value in the assay on RSK substrate p140 is reported as “specifically block”. The “inhibition of proliferation of MCF-7” value with MCF-7 is listed as “inhibit the proliferation of MCF-7”. In addition, in assay [9] (selective, reversible, ATP-competitive), the Ki is 1 µM. Also, in [9] (with 10 μM ATP, read-out: IC50 RSK kinase activity), the IC50 is 0.089 µM. Further, in assay [1], the “nuclear retention of RanBP1” value is “not detected”. Moreover, the “nuclear retention … (vRNPs)” value in assay [2] is “nuclear retention”.

Take `CCCCCCCCCCCCCC(=O)O[C@@H]1[C@@H](C)[C@@]2(O)[C@@H](C=C(CO)C[C@]3(O)C(=O)C(C)=C[C@@H]23)[C@@H]2C(C)(C)[C@]12OC(C)=O` [TPA]: the “nuclear accumulation of ERK1/2” value in the assay on ERK1/2 [10] is 48.02%±2.25%. Besides, the “nuclear accumulation of RSK2” value in the assay with RSK2 is recorded as 34.89%±0.67%.

The record behind these values is patent publication US20220152080A1 (priority 2019, published 2022).
